Assay results as given in patent US4822791A, “Pharmaceutical compositions of-2,2-1,1-[bis-2,2'-(3,1-benzoxazin-4-one)9 ethylenes” (priority 1984, dated 1989).
Where two headings read alike, the source gives them in different places.

Legend:
[1] = system: experimental ulcer model (Shay); assay: Anti-ulcer activity in experimental ulcer model (Shay); type: in vivo, Wistar strain male rats
Method: Using 5 eight-week old Wistar strain male rats of 1 group, the rats were previously fasted for […]. The compound of an amount proportionate to the body weight based on the body weight after fasting was administered intraduodenally or intraperitoneally.
Each test compound was evenly suspended or dissolved in an aqueous solution of 0.5% CMC ccntaining 0.1% Tween 80, and administered at the rate of 0.5 ml per 100 g of body weight of the animal. To the controls, only the solvent was administered.
Test was carried out in accordance with Shay's method. After 48 hours' fasting, 5 animals per group were subjected to laparotomy under ether anesthesia, the tract between pylorus of stomach and duodenum was ligated, and the solution of the compound was administered intraduodenally (id) or intraperitoneally (ip), followed by suturing the laparotomy part. Eight hours after administration of the compound liquid, each animal was sacrificed by ether anesthesia and stomach was removed. Then, evaluation on the ulcer condition on the inner surface of stomach, and determination of the amount of gastric juice, of acidity by alkali titration, and of pepsin titer based on substrate of hemoglovin were made on the stored gastric juice. With regard to the acidity, gastric juice amount, and pepsin titer, the results were shown in inhibition rate (%) based on the average value of the control groups.

hyaluronidase = molecular target: T1, hyaluronidase (Bos taurus, UniProt Q2YDK3); assay: Anti-hyaluronidase activity (modified Morgan-Elson method); type: biochemical; details: hyaluronidase 340NF unit/ml, activating agent Compound 48/80 or CaCl2
T1 sequence (Q2YDK3 36-553): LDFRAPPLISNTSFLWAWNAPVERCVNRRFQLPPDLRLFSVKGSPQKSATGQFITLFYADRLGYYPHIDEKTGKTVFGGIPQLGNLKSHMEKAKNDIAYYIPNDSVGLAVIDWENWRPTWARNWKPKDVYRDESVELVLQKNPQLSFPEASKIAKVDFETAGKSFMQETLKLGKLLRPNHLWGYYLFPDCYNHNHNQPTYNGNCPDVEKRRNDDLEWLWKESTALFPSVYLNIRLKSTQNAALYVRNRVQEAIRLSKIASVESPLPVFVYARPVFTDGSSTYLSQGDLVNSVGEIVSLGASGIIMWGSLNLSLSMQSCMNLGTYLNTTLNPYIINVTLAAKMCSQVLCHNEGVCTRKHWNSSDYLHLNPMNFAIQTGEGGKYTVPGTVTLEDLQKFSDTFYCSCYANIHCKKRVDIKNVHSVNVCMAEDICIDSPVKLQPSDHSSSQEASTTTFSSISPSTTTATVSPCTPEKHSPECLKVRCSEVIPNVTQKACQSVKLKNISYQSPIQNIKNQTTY

[2] = system: passive cutaneous anaphylaxis (PCA); assay: Anti-passive cutaneous anaphylaxis (PCA) activity in rats (Test Example 2); type: in vivo, Wistar strain rats; details: Rattus norvegicus, N 10; for inhibition in vivo at 50 mg/kg: 50 mg/kg PO; for inhibition in vivo at 100 mg/kg: 100 mg/kg PO; for inhibition in vivo at 10 mg/kg: 10 mg/kg PO
Method: (§1) Wistar strain rats were sensitized with ovalbumin using aluminium hydroxide gel and Bordetella Pertussis vaccine as adjuvants. Dilutions of antiserum (16-fold and 32-fold) obtained by collecting blood samples 14 days later were administered subcutaneously in the dorsal skin of the rats of the same strain at the rate of 0.1 ml per spot, and the rats were grown for 48 hours. One hour after peroral administration of the sample solution, a mixture of antigen ovalbumin and Evans-blue dye was administered to the tail venous of the animal according to the ordinary procedure. Thirty minutes later, the animals were sacrificed by exsanguination, and the areas of blue spots (long diameter×short diameter) eliciting on the portion of the antiserum injection at the dorsal skin were measured to obtain the rate of inhibition based on the average value shown by the control animals.

[3] = Acute toxicity LD50 in mice (Test Example 8); details: mouse, in vivo, one week, Probit method
Method: ddy-Strain mice (male) and Wistar strain rats were used to obtain LD50 values.
According to the ordinary procedure, suspension or solution of test sample was administered to the animals. From the number of the died animals until one week after the administration, LD50 values were obtained by Probit method.

[4] = system: passive cutaneous anaphylaxis (PCA); assay: Anti-passive cutaneous anaphylaxis activity (PCA) in rats (Test Example 9); type: in vivo; details: Rattus norvegicus, po, 10 animals
Method: as §1
This test was conducted in a manner similar to that in Test Example 2, except that the dilutions of antiserum were 12- and 24-folds.

[5] = Acute toxicity LD50 in ICR mice (Test Example 11); details: mouse, in vivo; intravenous; one week; Provit method; read-out: LD50 Value (mg/kg of body weight) Intravenous administration
Method: As test animals, ICR-strain mice (male) were used. According to the conventional procedure, suspension or solution of test sample was administered to the animals. From the number of the died animals until one week after the administration, LD50 values were obtained by Provit method.

[6] = read-out: Average Inhibition Rate (%) Antiserum Dilution: × 16
[7] = read-out: Average Inhibition Rate (%) Antiserum Dilution: × 32
[8] = iv, read-out: LD50 value (mg/kg body weight) Mouse i.v.
[9] = po, read-out: LD50 value (mg/kg body weight) Mouse p.o.
[10] = read-out: Inhibition, Anti-serum Dilution: × 12
[11] = read-out: Inhibition, Anti-serum Dilution: × 24

| Compound | inhibition in vivo at 100 mg/kg [2, 6] | inhibition in vivo at 100 mg/kg [2, 7] | IC50 (hyaluronidase; read-out: IC50) | inhibition in vivo at 50 mg/kg [4, 10] | inhibition in vivo at 50 mg/kg [4, 11] | inhibition in vivo at 10 mg/kg [4, 10] | inhibition in vivo at 10 mg/kg [4, 11] | other results |
| --- | --- | --- | --- | --- | --- | --- | --- | --- |
| COc1ccc(C=C(C(=O)Nc2cc([N+](=O)[O-])ccc2C(=O)O)C(=O)Nc2cc([N+](=O)[O-])ccc2C(=O)O)cc1OC [Compound 22] | 34.6% | 40% | – | – | – | – | – | Inhibition % Gastric Acidity ([1]; id 100 mg/kg): 9.1%; Inhibition % secretion amount of gastric juice ([1]; id 100 mg/kg): 11.1%; Inhibition % total pepsin titer ([1]; id 100 mg/kg): 7.2%; Inhibition % Gastric Acidity ([1]; id 200 mg/kg): 13.2%; Inhibition % secretion amount of gastric juice ([1]; id 200 mg/kg): 11.6%; Inhibition % total pepsin titer ([1]; id 200 mg/kg): 10.1%; Inhibition % Gastric Acidity ([1]; id 300 mg/kg): 15.7%; Inhibition % secretion amount of gastric juice ([1]; id 300 mg/kg): 24.9%; Inhibition % total pepsin titer ([1]; id 300 mg/kg): 8.3%; Inhibition % Gastric Acidity ([1]; ip 50 mg/kg): 38.2%; Inhibition % secretion amount of gastric juice ([1]; ip 50 mg/kg): 29.0%; Inhibition % total pepsin titer ([1]; ip 50 mg/kg): 37.2%; IC50 (hyaluronidase; IC50 (mM)): 0.008 mM; inhibition in vivo at 50 mg/kg [2, 6]: 19.7%; inhibition in vivo at 50 mg/kg [2, 7]: 22.6% |
| COc1cc(C=C(C(=O)Nc2ccccc2C(=O)O)C(=O)Nc2ccccc2C(=O)O)ccc1O [Compound 24] | – | – | 0.02 mM | – | – | – | – | LD50 at 168 h [3, 8]: 275 mg/kg; LD50 at 168 h [3, 9]: > 10000 mg/kg |
| Cc1ccc(C=C(C(=O)Nc2ccccc2C(=O)O)C(=O)Nc2ccccc2C(=O)O)cc1 [Compound 26, 2,2'-[[1,3-dioxo-2-(4-methyl)phenylmethylene-1,3-propanediyl]diimino]bisbenzoic acid] | 16.4% | 19.1% | 0.02 mM | – | – | – | – | inhibition in vivo at 50 mg/kg [2, 6]: 8.3%; inhibition in vivo at 50 mg/kg [2, 7]: 10% |
| CC(=O)Nc1ccc(C=C(C(=O)Nc2ccccc2C(=O)O)C(=O)Nc2ccccc2C(=O)O)cc1 [Compound 29] | 3.4% | 3.9% | 0.02 mM | – | – | – | – | Inhibition % Gastric Acidity ([1]; id 100 mg/kg): 0%; Inhibition % secretion amount of gastric juice ([1]; id 100 mg/kg): 0%; Inhibition % total pepsin titer ([1]; id 100 mg/kg): 0%; Inhibition % Gastric Acidity ([1]; id 200 mg/kg): 0.7%; Inhibition % secretion amount of gastric juice ([1]; id 200 mg/kg): 0.5%; Inhibition % total pepsin titer ([1]; id 200 mg/kg): 0% |
| O=C(Nc1ccccc1C(=O)O)C(=Cc1ccc(Cl)cc1)C(=O)Nc1ccccc1C(=O)O [Compound 30] | 36.5% | 42.5% | 0.01 mM | – | – | – | – | LD50 at 168 h [3, 8]: 258 mg/kg; LD50 at 168 h [3, 9]: 8380 mg/kg; inhibition in vivo at 10 mg/kg [2, 6]: 18.8%; inhibition in vivo at 10 mg/kg [2, 7]: 23.2%; inhibition in vivo at 50 mg/kg [2, 6]: 23.4%; inhibition in vivo at 50 mg/kg [2, 7]: 33.3% |
| CC(C)OC(=O)c1ccccc1NC(=O)C(=Cc1ccccc1)C(=O)Nc1ccccc1C(=O)OC(C)C [Compound 53, diisopropyl 2,2'-[(1,3-dioxo-2-phenylmethylene-1,3-propanediyl)diimino]bisbenzoate] | – | – | – | 26.1% | 23.9% | – | – | – |
| CC(C)(C)OC(=O)c1ccccc1NC(=O)C(=Cc1ccccc1)C(=O)Nc1ccccc1C(=O)OC(C)(C)C [Compound 54, di-tertiary butyl 2,2'-[(1,3-dioxo-2-phenylmethylene-1,3-propanediyl)diimino]bisbenzoate] | – | – | – | 38.8% | 42.6% | 33% | 34.3% | LD50 at 168 h [5]: 312 mg/kg |
| O=C(Nc1ccccc1C(=O)OC1OC(=O)c2ccccc21)C(=Cc1ccccc1)C(=O)Nc1ccccc1C(=O)OC1OC(=O)c2ccccc21 (stereo not drawn) [Compound 56] | – | – | – | 49.7% | 58.4% | 44.7% | 43.6% | – |
| CC(C)(C)C(=O)OCOC(=O)c1ccccc1NC(=O)C(=Cc1ccccc1)C(=O)Nc1ccccc1C(=O)OCOC(=O)C(C)(C)C [Compound 57, di(pivaloyloxymethyl)-2,2'-[(1,3-dioxo-2-phenylmethylene-1,3-propanediyl)diimino]bisbenzoate] | – | – | – | 45% | 50.1% | 37% | 30.9% | – |
| CCOC(=O)OC(C)OC(=O)c1ccccc1NC(=O)C(=Cc1ccccc1)C(=O)Nc1ccccc1C(=O)OC(C)OC(=O)OCC (stereo not drawn) [Compound 58, di[1-(ethoxycarbonyloxy)ethyl]-2,2'-[(1,3-dioxo-2-phenylmethylene-1,3-propanediyl)diimino]bisbenzoate] | – | – | – | 50.8% | 57.6% | 40.2% | 43.1% | – |
| Cc1oc(=O)oc1COC(=O)c1ccccc1NC(=O)C(=Cc1ccccc1)C(=O)Nc1ccccc1C(=O)OCc1oc(=O)oc1C [Compound 59, di[(5-methyl-2-oxo-1,3-dioxole-4-yl)methyl]-2,2'-[(1,3-dioxo-2-phenylmethylene-1,3-propanediyl)diimino]bisbenzoate] | – | – | – | 65.7% | 62% | 22% | 25.1% | – |
